Measurements taken from patent US9782393B2, “Pharmaceutical compositions and methods for treating cancer and biomarkers for drug screening” (NATIONAL DEFENSE MEDICAL CENTER, priority 2013, dated 2017).
Like-named read-outs stand apart in the source and are kept apart here.

Columns and labels:
ACHN cells [1] = test: Annexin V-FITC / propidium iodide flow cytometry, cell necroptosis; assay type: cell-based, Human; settings: 24 hours, 5 μM sorafenib, 10 μM GW5074, or both
Protocol: (§1) Cells were cultured as described in example 1, washed with phosphate buffered saline (PBS), and stained with annexin V-FITC and propidium iodide (PI) for 15 minutes. The presence of fluorescent Annexin V as well as propidium iodide (PI) was detected by flow cytometry so as to determine whether the cell death is caused by apoptosis or necrosis. The expression of c-Raf and DAPK as well as the phosphorylation status of DAPK were examined by Western blot and immunoprecipitation using antibodies. Anti-DAPK antibodies or non-immune rabbit IgG (IP: immunoglobulin) were included as negative controls, and cell survival was measured by SRB assay, as shown in example 1.

ACHN cells [2] = test: ACHN xenograft in immunodeficient mice, tumor volume; assay type: in vivo; settings: printed as 5 μM sorafenib, 10 μM GW5074, separate or combined; once a day for three weeks; n=8
Protocol: Six-week old immnunodeficient male mice (BALB/cAnN.Cg-Foxn1^nu/CrlNarl) with an average weight of 20 grams were xenografted with 1×10^7 ACHN cells to the right by […]. The mice were maintained in a specific pathogen-free (SPF) environment. The size of tumor was measured using a digital caliper twice a week and tumor volume was calculated by the equation of length*width*height*0.5. […] A total of four groups were included in the experiment: a control group which received only vehicle (DMSO), […], 25 mg/kg GW5074, […], respectively, with 8 mice in each group.

ACHN cells [3] = test: SRB assay, growth inhibition of ACHN cells; assay type: cell-based, Human; settings: 5 μM sorafenib, 10 μM GW5074, single or combined, 24 hours
Protocol: Human renal carcinoma (ACHN) cells were cultured in Eagle MEM (Minimum Essential Medium) with 10% FBS (Fetal Bovine Serum) and 1% penicillin/streptomycin. Sulforhodamine B (SRB) is a negative […] with a sulfonic acid group and binds to basic amino acids of intracellular proteins in weak acidic conditions. The SRB […] was extracted from cells using weak alkaline solution and then subjected to absorbance measurement. The amount of intracellular proteins, which is an indicator for cell survival, can be calculated from the amount of SRB. ACHN or A498 cells were treated singularly with 2.5 μM sorafenib, 5 μM sorafenib, 10 μM sorafenib, GW5074, L779450 or PLX4720 for 24, 48 and 72 hours, followed by SRB assay to assess cell survival. Alternatively, ACHN cells were pre-treated with 10 μM GW5074, 10 μM L779450 or 10 μM PLX4720 for 30 minutes prior to 5 μM sorafenib treatment for additional 24, 48 and 72 hours, followed by SRB assay to assess growth inhibition.

pDAPK^S308 = assay type: cell-based, Human; settings: ACHN cells; PP2A inhibitor, various concentrations, provided 30 minutes prior to the combination drugs
Protocol: as §1, with “1. In this experiment, ACHN cells were treated separately with DMSO (as a control group), 5 μM sorafenib, 10 μM GW5074, or combination therapy of 5 μM sorafenib and 10 μM GW5074 for 24 hours.” for “1.”

[4] = 10 mg/kg sorafenib, 25 mg/kg GW5074, or both

Protocol for Luc-ACHN-LL cells: Immunodeficient male mice was injected with 3×10^5 Luc-ACHN-LL cells in 50 μL PBS at the right renal capsule. In vivo luciferase activity was examined every day for up to three weeks so as to assure no leakage of cancer cells at the kidneys immediately after injection and to monitor metastasis of these cancer cells. Two to five minutes before utilizing the IVIS Xenogene system, 75 mg/kg D-Luciferin (Xenogen) in PBS was injected to the retro-orbital sinus of each mouse. Two weeks after injection of Luc-ACHN-LL cells, IVIS Xenogene system was used to monitor transfer of biological fluorescent images and to calculate the intensities of the photon signals (photons/s/cm^2/steradian). A total of five groups were included in the study: a control group which received only vehicle, and four test groups which respectively received 10 mg/kg sorafenib, 25 mg/kg GW5074, a combination therapy of 10 mg/kg sorafenib and 25 mg/kg GW5074 (the animals were fed with Sor 30 min post i.p. injection of GW), or 60 mg/kg sorafenib.

O=C1Nc2ccc(I)cc2/C1=C/c1cc(Br)c(O)c(Br)c1 [GW5074, 3-(3,5-Dibromo-4-hydroxy-benzylidene)-5-iodo-1,3-dihydro-indol-2-one]
average cell necroptosis rate (ACHN cells [1]): 1.35% | death within weeks following injection of cancer cells (survival) (Luc-ACHN-LL cells; [4]): ≤ 5 weeks | xenografted tumor volume, inhibition effect (ACHN cells [2]): nearly no inhibition effect | growth inhibition of cells (ACHN cells [3]): no growth inhibition

CNC(=O)c1cc(Oc2ccc(NC(=O)Nc3ccc(Cl)c(C(F)(F)F)c3)cc2)ccn1 [sorafenib]
average cell necroptosis rate (ACHN cells [1]): 0.77% | death within weeks following injection of cancer cells (survival) (Luc-ACHN-LL cells; [4]): ≤ 8 weeks | death within weeks following injection of cancer cells (survival) (Luc-ACHN-LL cells; high-dose 60 mg/kg sorafenib): ≤ 10 weeks | body weight (Luc-ACHN-LL cells; mouse, in vivo, 60 mg/kg): loss of weight | xenografted tumor volume, inhibition effect (ACHN cells [2]): nearly no inhibition effect | growth inhibition of cells (ACHN cells [3]): no growth inhibition

C=C1[C@@H](O)[C@@H]2O[C@]3(CC[C@H](/C=C/[C@@H](C)[C@@H]4CC(C)=C[C@@]5(O[C@H](C[C@@](C)(O)C(=O)O)CC[C@H]5O)O4)O3)CC[C@H]2O[C@@H]1[C@@H](O)C[C@H](C)[C@H]1O[C@@]2(CCCCO2)CC[C@H]1C [Okadaic acid]
inhibition of dephosphorylation of pDAPK^S308 under combination therapy (pDAPK^S308): effective in inhibition of dephosphorylation of pDAPK^S308
